Measurements reported in patent US20100184867A1, “USE OF ACTIVE AGENTS FOR STIMULATING THE EXPRESSION OF FN3K AND/OR FN3K RP FOR COMBATING AGEING OF THE SKIN” (CHANEL PARFUMS BEAUTE, priority 2007, published 2010).

System: glycation of the extra-cellular matrix (ECM)
Assay: Glycation of the extra-cellular matrix (ECM) of fibroblasts: EFA content by dot blot and densitometric analysis
Assay type: cell-based, human
Details: 1 mg/ml
Experimental: Human normal fibroblasts were cultured at 37° C. in the presence of DMEM (Invitrogen) containing 10% of fetal bovine serum (Invitrogen) and 50 UI/ml of penicillin, 50 μg/ml of […] (Invitrogen) and 2 mM of glutamin. Collagen synthesis was stimulated by culturing cells in the presence of vitamin C at 20 μg/ml (Sigma) for 5 days. The cells were then washed with PBS and lysed by successive cycles of freezing and thawing.
Except for the controls, cell layers had previously been treated with Butea frondosa (at 0.02; 0.1 and 0.5%), which was prepared according to Example 1 or with a reference compound: aminoguanidin at 1 mg/ml (Sigma). The cells were then incubated in the presence of 0.1 mg/ml glucose. Each of the treatments was performed, in triplicate, for 15 days at 37° C. with 5% CO2.
At the end of the incubation period, ECM proteins (essentially collagen) were extracted, and the samples were then transferred onto a nitrocellulose membrane (Hybrond, ECL, Amersham) by means of a Milliblot dotblot (Millipore). All the controls were carried out in order to assess the specificity of the final response. No interference was observed. […]
The following table illustrates the effect of this treatment on glucose incorporation into macromolecules synthetised by fibroblasts. The presence of EFA was measured by dot blot analysis and densitometric analysis.

N=C(N)NN [Aminoguanidin, aminoguanidin]
Inhibition of EFA content compared to the control: 35% | EFA content relative to control (15 days, 0.1 mg/ml glucose, control 100%): 65%
